Data published in US6020480A, “Caged NADP and NAD” (The Regents of the University of California, priority 1997, dated 2000).

Assays:
[1] = Rates of photorelease from decay of the aci-nitro anions after photolysis; assay type: physicochemical
Description: The decay of aci-nitro intermediates was monitored at 402 nm or 418 nm with an Osram 50-W tungsten halogen lamp following excitation at 355 nm with a 55 mJ 8-ns pulse. Samples were prepared with 50 mM phosphate buffer, pH 7.0 or pH 6.0. […] Kinetic analysis was made by nonlinear, least-squares computer iteration. The averages of three trials are reported.

[2] = biological target: T1, IDH, isocitrate dehydrogenase (Escherichia coli) (Escherichia coli, UniProt P08200); assay: Crystallographic analysis of caged compounds soaked into IDH crystals; assay type: binding; conditions: 250 mM soak
T1 construct: made in house
Excerpt: IDH was purified and crystallized as described previously by Reeves, H. C., Daumy, G. O., Lin, C. C., and Houston, M. (1972) Biochim. Biophys. Acta 258, 27-39; LaPorte, D. C., Thorsness, P. E., and Koshland, D. E., Jr. (1985) J. Biol. Chem. 260, 10563-10568; Hurley, J. H., Thorsness, P. E., Ramalingam, V., Helmers, N. H., Koshland, D. E., Jr., and Stroud, R. M. (1989) Proc. Natl. Acad. Sci. U.S.A 86, 8635-8639; and Stoddard, B. L., Dean, A., and Koshland, D. E., Jr. (1993) Biochemistry 32, 9310-9316.
The crystals were 0.5 to 1.5 mm along their longest edges, with a shorter third dimension of 0.2 to 0.3 mm; the crystals belong to space group P43 21 2. The unit cell dimensions prior to photolysis and after binding liberated substrate consistently refined to values within 0.5% of the previously published lengths during data processing.
A total of six crystallographic data sets were collected for this study. The structure of the enzyme was determined prior to photolysis after soaking with each compound, both in the presence and absence of bound isocitrate/Mg^+2. The structure of the bound photolysis product was also determined for both caged compounds in the absence of isocitrate/Mg^+2.
For each experiment, a crystal was transferred to 0.5 mL of a stabilization solution (generally 10% higher ammonium sulfate than that used to grow the crystals, buffered at pH 7.0 with HEPES) and soaked overnight in the dark with 250 mM of either 1 or 3. These experiments were performed for each compound in the presence and absence of 50 mM isocitrate and MgSO4. To protect the crystal from oxidative degradation after photolysis by the nitroso photoproducts, β-mercaptoethanol (10 mM) and DTT (10 mM) were also added to the mother liquor. The crystals were mounted under safe-light in quartz capillaries with mother liquor at either end of the capillary. The mount was sealed with mineral oil and paraffin wax. Initial data were collected at room temperature in the dark on an RAXIS imaging plate area detector with a Rigaku RU-200 rotating anode X-ray generator operating at 50 kV, 80 mA. A complete data set was collected from each crystal to 2.5 Å resolution using 20 1.5° rotations at 30 minutes per frame, followed by an additional 10 frames collected with the crystal on a 45° jig (Molecular Structure Corporation) for completeness. The total decay in X-ray intensities during collection of each of these four dark data sets was less than 5% of the initial structure average factor amplitudes.
Crystals that were soaked in caged 1 or 3 in the absence of isocitrate were each irradiated after the dark data collection, using a two minute exposure with a Cole Parmer 9741-50 quartz halogen light source with a 9741-03 high intensity 150 watt bulb and dual fiber optic light pipes and focusing lenses. […]

[3] = biological target: T1, IDH, isocitrate dehydrogenase (Escherichia coli); assay: Turnover check by absorbance analysis of dissolved IDH crystals after extensive soaks; assay type: biochemical; conditions: crystals soaked in presence of bound isocitrate/Mg+2
Excerpt: The nicotinamide ring, its ribose sugar, and the first backbone phosphate are all completely disordered. […] The presence of the caging group on the carboxyamide nitrogen sterically prevents hydride transfer. […] After photolysis in the absence of isocitrate, liberated NADP 1002 is still bound to the active site as previously determined for unmodified NADP, as shown in FIG. C. The clear advantage of this compound as a photolytic trigger for time-resolved studies is that it is bound to the enzyme active site prior to photolysis, so that no additional diffusion or binding events are necessary to form the Michaelis complex.

[4] = 10 mM DTT, monitored at 418 nm, double exponential fit
[5] = absence of bound isocitrate/Mg+2, dark
[6] = presence of bound isocitrate/Mg+2, dark

T1 sequence (P08200 whole entry): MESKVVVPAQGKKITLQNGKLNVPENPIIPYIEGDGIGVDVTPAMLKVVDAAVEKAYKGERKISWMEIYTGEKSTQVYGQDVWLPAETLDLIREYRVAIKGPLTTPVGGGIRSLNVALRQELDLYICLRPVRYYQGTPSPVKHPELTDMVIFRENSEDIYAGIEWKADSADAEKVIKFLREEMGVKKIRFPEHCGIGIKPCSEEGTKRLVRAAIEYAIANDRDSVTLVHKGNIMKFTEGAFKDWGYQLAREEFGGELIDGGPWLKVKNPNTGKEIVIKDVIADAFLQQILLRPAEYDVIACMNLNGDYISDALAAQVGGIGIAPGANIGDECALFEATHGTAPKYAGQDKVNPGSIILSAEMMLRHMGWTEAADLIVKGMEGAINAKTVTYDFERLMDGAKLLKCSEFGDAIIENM

Compound | aci-nitro transient decay rate, fast component [1, 4] [s⁻¹] | aci-nitro transient decay rate, slow component [1, 4] [s⁻¹] | aci-nitro transient decay rate, fast component ([1]; 100 mM DTT, 418 nm) [s⁻¹] | aci-nitro transient decay rate, slow component ([1]; 100 mM DTT, 418 nm) [s⁻¹] | binding to IDH active site before photolysis [2, 5] | binding to IDH active site before photolysis [2, 6] | first-order decay rate k of transient (rate of photorelease) ([1]; 50 mM phosphate buffer, pH 7.0) [s⁻¹] | rate of photorelease ([1]; sample pH 6) [s⁻¹] | IDH turnover with caged cofactor before photolysis [3] | fast decay component ([1]; DTT concentration not stated) [s⁻¹]
COc1cc(C(C)OP(=O)(O)O[C@@H]2[C@H](O)[C@@H](COP(=O)(O)OP(=O)([O-])OC[C@H]3O[C@@H]([n+]4cccc(C(N)=O)c4)[C@H](O)[C@@H]3O)O[C@H]2n2cnc3c(N)ncnc32)c([N+](=O)[O-])cc1OC (stereo partly drawn) [compound 1, P^2' -[1-(4,5-Dimethoxy-2-nitrophenyl)ethyl]nicotinamide adenine dinucleotide phosphate] | 13000 | 93 | 18000 | 480 | fails to bind | fails to bind | – | – | – | –
Nc1ncnc2c1ncn2[C@@H]1O[C@H](COP(=O)(O)OP(=O)([O-])OC[C@H]2O[C@@H]([n+]3cccc(C(=O)NC(C(=O)O)c4ccccc4[N+](=O)[O-])c3)[C@H](O)[C@@H]2O)[C@@H](O)[C@H]1OP(=O)(O)O (stereo partly drawn) [compound 3, N-(α-Carboxy-2-nitrobenzyl)-nicotinamide adenine dinucleotide phosphate] | – | – | – | – | binds to the enzyme | both backbone phosphates of the caged cofactor are well ordered | 30 | 42 | turnover does not occur | –
P-[1-(4,5-Dimethoxy-2-nitrophenyl)ethyl] nicotinamide adenine dinucleotide [compound 2] | – | – | – | – | – | – | – | – | – | 17000
